# Laboratory results reported in patent US20240216412A1, “OXIDIZED NICOTINAMIDE ADENINE DINUCLEOTIDE (NAD+) PRECURSOR TREATMENT FOR HEART FAILURE ALLEVIATION INDEPENDENT OF MITOCHONDRIAL PROTEIN DEACETYLATION” (University of Washington, priority 2022, published 2024).
# Columns and labels:
# Type in all cases: in vivo, mouse
# [1] = tested on: mitochondrial protein acetylation; Mrpp2, mt-Cox1, mt-Nd1 protein levels; assay: Western blot of cardiac mitochondrial protein acetylation and of Mrpp2, mt-Cox1, mt-Nd1
# Procedure: Western blot. For Western blot procedures cardiac tissues were homogenized with RIPA buffer (ThermoScientific Pierce RIPA Buffer #89900) and protease inhibitors (Roche Cat. No. 11-836-170-001) using bullet blender at 4° C. for 10 minutes. Protein concentrations of supernatants were collected after centrifugation and quantified using Pierce™ BCA® Protein Assay Kits and Reagents (#23225). Protein lysates in Lammeli sample buffer were loaded to 10% SDS-PAGE, transferred to PVDF membrane and blocked with 5% BSA in TSBT. Specific proteins were detected by specific antibodies listed above and corresponding secondary antibodies. Signals were visualized by HRP derived chemiluminescence (Amersham ECL Western Blotting Detection System #RPN2106) and film. Protein levels were quantified by Image-J.
# Mitochondrial Isolation from cardiac tissue. Hearts were excised from mice, the aortas and atria were removed. Heart tissues were rinsed briefly in ice-cold mitochondria isolation medium (MIM) (70 mM sucrose, 220 mM mannitol, 5 mM MOPS, 1 mM EDTA, 0.025% fatty acid-free BSA, pH 7.4 with 5M KOH) to remove residual blood. Tissues were minced on ice and resuspended in fresh MIM, followed by trypsin digestion (10 ug/ml) and incubated on ice for 10 min. Trypsin digestion was stopped by the addition of trypsin inhibitor (0.5 mg/ml) and additional BSA (1 mg/ml) to MIM. The tissue pellets were resuspended in fresh MIM containing 1 mg/ml BSA, and transferred to a Teflon-glass tube and homogenized on ice with a Teflon pestle. The homogenates were centrifuged for 10 min at 800×g at 4° C. The supernatants were collected and centrifuged for 10 min at 8,000×g at 4° C. The supernatant was discarded and the mitochondrial pellets were resuspended in MIM to wash. The resuspension was centrifuged for 10 min at 8,000×g at 4° C., and the supernatant discarded. The mitochondrial pellet was resuspended to a concentrated volume for protein quantification by BCA Assay (Pierce).
# Antibodies. Acetylated lysine antibody (Cell Signaling 9441s), Mrpp2 (Hsd17b10, ERAB) from Proteintech catalog number 10648-1-AP, Mrrp1 (Trmt10c) from Proteintech catalog number 29087-1-AP, Mt-C01 from Abcam [1D6E1A8] (ab14705), and Mt-Nd1 from Santa Cruz (C-18) catalog sc-20493, RXRα (Cell Signaling D6H10) Rabbit mAb, SirT3 (Cell Signaling D22A3) Rabbit mAb, ATP5B (E-1) Santa Cruz Biotechnology sc-55597.
# Mrpp2 = Mrpp2 dehydrogenase activity in heart homogenates; conditions: NR treated failing (TAC) hearts, matching sham operated controls
# Procedure: Enzyme Activities. Citrate synthase (CS), Complex I (CI) and Cytochrome C Oxidase (CIV), and Mrpp2 dehydrogenase activities were determined in heart tissue homogenates at 30° C. using a protocol adapted from previously published methods (Spinazzi et al., 2012). Briefly, for CS activity frozen cardiac tissue (25 mg) was homogenized at 4° C. in CelLytic™ MT Cell Lysis Reagent (C3228) and then incubated on ice for 30 minutes. The samples were then centrifuged at 10,000×g for 10 minutes at 4° C. and protein concentration determined. CS activity was analyzed in 100 mM Tris buffer containing 0.1% Triton X-100, pH 8.0 as previously described (Spinazzi et al., 2012). […] CIV activity was analyzed in 100 mM potassium phosphate buffer as previously described (Spinazzi et al., 2012). […] Cl activity was analyzed in 100 mM potassium phosphate buffer as previously described (Spinazzi et al., 2012). In parallel, a separate reactions containing the same quantity of reagents and sample but with the addition of 10 μl of 1 mM rotenone solution. The reactions were started by adding 6 μl of ubiquinone (10 mM), mix and follow the decrease of absorbance at 340 nm for 2 min. The dehydrogenase activity of Mrpp2 was measured as described (Falk et al., 2016) in the reverse direction for reduction of acetoacetyl-CoA (30 mM) to L-3-hydroxyacyl-CoA. The reaction was monitored as the decrease of absorbance at 340 nm.
# [2] = tested on: NAD(H) levels in hearts and livers; assay: Heart and liver NAD+/NADH after oral or IP NR administration (Experimental Example 2)
# Procedure: Mice 2-4 months old were used, weighing 25 to 27 g, with water intake ranging from 3.5 to 6.5 ml/day. To each mouse, either NR as an NAD precursor was administered daily or vehicle was administered daily, for up to 10 days, either by IP injection or orally by drinking water. Saline was used as vehicle for IP injection. For oral administration, vehicle was unmodified drinking water. NR was supplied substantially as in Experimental Example 1. For IP administration, NR was diluted in sterile, pharmaceutical-grade isotonic saline at concentrations based on weight-based dosing per subject to provide respective 500 mg/kg body weight daily doses as administrated by IP injection. Additionally, for oral administration, NR was dissolved in sterile filtered water at concentrations based on weight-based dosing per subject to provide respective 400 mg/kg body weight daily doses, provided for drinking adlibitum. […] Over the first several days of oral administration of NR solutions, the consumption of NR water was monitored daily to verify that mice are not finding the NR water unpalatable and becoming dehydrated. […] NAD^+ and NADH were determined in approximately 6 mg heart tissue and approximately 6 mg liver tissue using BioAssay Systems EnzyChrom NAD^+/NAD Assay Kit ([…]-100) per manufactures instructions.
smiles,measurement,setting,value
"NC(=O)c1ccc[n+]([C@@H]2O[C@H](CO)[C@@H](O)[C@H]2O)c1 [NR, Nicotinamide riboside chloride]",Mitochondrial protein acetylation,[1]; NR treated Sirt3Ko mice,no change
same,Mrpp2 protein level,[1]; NR treated TAC hearts,normalization
same,Protein levels of mt-Cox1 and mt-Nd1,[1]; TAC hearts that received NR,preserved
same,Mitochondrial protein hyperacetylation,[1]; WT control mice after TAC,reversed the protein hyperacetylation
same,Increase in Mrpp2 dehydrogenase activity,Mrpp2,~2 fold
same,"Increase of NAD(H) in hearts and livers, IP injection over oral administration",[2]; IP 500 mg/kg daily 10 days vs oral 400 mg/kg daily 3 or 7 days,greater increases
same,Levels of NAD(H) in hearts and livers,"[2]; oral 400 mg/kg daily 3 or 7 days, IP 500 mg/kg daily 10 days",increased
